The nature of data set [1]: MTT cytotoxicity assay, CT-26. Type of data set: cell-based, murine. Conditions: mouse (CT-26) and human (WI-38); CC50 of WI-38 divided by CC50 of CT-26; read-out: SCI (selective cytotoxicity index). From the text: (§1) The cytotoxicity of the test compounds was studied using the MTT assay against a number of cell lines: CT-26 murine colon carcinoma, 4T1 murine mammary carcinoma, MDA-MB-231 human breast adenocarcinoma, COLO201 human colorectal adenocarcinoma, HepG2 human hepatocellular carcinoma, A549 human non-small-cell lung carcinoma, SK-BR-3 human breast adenocarcinoma, SNU-1 human gastric carcinoma, Jurkat human acute T-lymphoblastic leukemia, and WI-38 human lung fibroblasts (normal cells). Doxorubicin (Dox) was used as a reference drug. Cells were incubated with test compounds for 72 h.
(§2) Cells were seeded in flat-bottomed 96-well plates at 10,000 cells per well (for A549, SNU-1, WI-38, CT-26, MDA-MB-231, 4T1, and HepG2 cells) or 20,000 cells per well (for SK-BR-3, Jurkat, and COLO201 cells) and cultivated in complete culture mediums (for composition of each medium, see the Supplementary Materials, Table S1) in a CO2 incubator at 37 °C. At the first stage of this study, the test compounds dissolved in DMSO were added to the wells with cells at final concentrations from 1 × 10^–4 to 1 × 10^–10 mol/L (A549, SK-BR-3, SNU-1, Jurkat, and WI-38) or 1 × 10^–3 to 1 × 10^–8 mol/L (CT-26, MDA-MB-231, 4T1, COLO201, and HepG2); DMSO concentration in the wells was finally 1%. A complete cultural medium and DMSO were added to the control wells at the same concentration as in the experimental wells; 0.1% Triton X-100 solution (10 µL) was added to the corresponding wells as a non-specific positive control. After adding the test compounds, the cells were incubated for 72 h in an atmosphere containing 5% CO2. After that, the nutrient medium was removed from each well (in the case of SK-BR-3, Jurkat, and COLO201, plates were pre-centrifuged at 1500 rpm for 6 min). A solution of the commercial anticancer agent Doxorubicin (Dox, Sigma-Aldrich, St. Louis, MO, USA) in DMSO was used as a reference drug. Then, 150 µL of a complete medium with the MTT reagent (PanEco, Moscow, Russia) at a concentration of 0.5 mg/mL was added and incubated for 2 h. Formazan crystals were dissolved in DMSO (200 µL) and the absorbance in the wells was measured at 540 nm and a reference wavelength of 650 nm (Sunrise, Tecan, Groding, Austria). Experiments were performed in three parallel runs. Cell viability after incubation in the presence of test compounds was calculated in relation to cell viability in the control wells according to the Formula (1):Cell viability (%) = (Aexp/Ac) × 100,(1) where Aexp is the optical density of solutions in the wells containing test compounds; Ac is the optical density of solutions in control wells without test compounds. For detailed information on cell viability of various cell lines, see the Supplementary Materials, Figures S21–S26.
(§3) At the second stage of this study, in order to more accurately calculate the CC50 (the half maximal inhibitory concentration), the cytotoxic effect of test compounds was evaluated at concentrations close to CC50 found at the first stage. The study of the cytotoxic activity of each substance towards the cells of each line was carried out in triplicate; the mean value was used to calculate CC50. The CC50 values were determined by non-linear regression analysis using Graph-Pad Prism7.
In general terms: Tetrazolium dyes change colour on reduction, which living cells bring about.

The test system of data set [2] is CT-26 murine colon carcinoma. Briefly: MTT cytotoxicity assay, CT-26. Format: cell-based. Conditions: Mus musculus, CT26; for viability at 100 µM: CT-26, 1 × 10^–4 M, mean ± SD (n = 3), read-out: Cell viability; for CC50: CT-26, 72 h incubation, MTT, n = 3.
Text: as §1, §2, §3

The nature of data set [3]: MTT cytotoxicity assay, Jurkat. Type of data set: cell-based, human. Conditions: human, read-out: SCI (selective cytotoxicity index).
The test system of data set [4] is Jurkat human acute T-lymphoblastic leukemia. Kind of data set: MTT cytotoxicity assay, Jurkat. Format: cell-based. The note with it: Homo sapiens, Jurkat; for CC50: 72 h, 72 h incubation, MTT; for viability at 100 µM: 1 × 10^–4 M, mean ± SD (n = 3), read-out: Cell viability.
For another data set, the system named is COLO201 cells. Briefly: Cell cycle analysis by flow cytometry (propidium iodide), COLO201. Format: cell-based, human. Conditions: for Cell proliferation index (%) / Number of cells (%) in cell cycle phase G0/G1 / Number of cells (%) in cell cycle phase G2M / Number of cells (%) in cell cycle phase S: 24 h, M ± SD (n = 3). How it is done:
To study the potential cytostatic effect of compound 1d, we chose the method of cell cycle analysis using flow cytometry by DNA staining with propidium iodide.
To analyze possible effects on the cell cycle, we tested three concentrations of compound 1d, which were close to CC50 calculated on the basis of viability assessment data (MTT assay).
Cell cycle analysis was performed by flow cytometry by staining DNA with propidium iodide (PI). For this, cells were seeded into 6-well plates: 2 × 10^5 COLO201 cells per well and 1.2 × 10^5 MDA-MB-231 cells per well. […] The final concentration of DMSO in the culture medium was 0.1%; an equivalent volume was added to the control cells. The plates were incubated for 24 h in a CO2 incubator. Then, cells were detached from the plastic surface using TrypLE, washed with PBS, and fixed with 70% ethanol. Next, the cells were incubated for 1 h in the dark at 4 °C, then sedimented by centrifugation at 184× g for 10 min, and washed twice with PBS. PBS (0.3 mL) containing 0.1% Triton X-100, 1 µg/mL PI, and 0.2 mg/mL RNAse A was added to the pellet, incubated for 30 min at room temperature in the dark, and analyzed on a CytoFlex flow cytometer (Beckman Coulter, Brea, CA, USA).
The cell population in the test sample was found and gated on forward versus side scatter (FSC-A vs. SSC-A). Next, doublets were discriminated and removed via PI signal height versus PI signal area (PI-H vs. PI-A). For cell cycle phases analysis, PI-A was plotted against number of events (number of cells) (PI-A vs. Count).
The flow cytometry data were processed using the Kaluza Analysis 2.1 software (Beckman Coulter, Brea, CA, USA). Percentages of cell populations distributed in the various phases of the cell cycle (sub-G1, G0/G1, S, and G2M) were calculated. The result was considered significant if the coefficient of variation (CV) was less than 6.
(Flow cytometry measures light scatter and fluorescence of single cells or particles in a stream.)

Data set [5] in a line: Solubility in aqueous media. Format: physicochemical. Conditions: result in words.
A further data set has as its system Vero E6 cells. On the set-up: method as in doi:10.1007/s10593-021-02929-z. The note with it: cited from earlier work.
[6] abbreviates: CC50 of WI-38 divided by CC50 of Jurkat (Table 1).

The viability is a read-out of living cells in per cent, often relative to untreated cells. In general, CC50 refers to the concentration at which the toxic effect on the cells reaches its halfway point. Higher therefore signals lower toxicity to the cells.

`CC1COc2c(ccc(F)c2F)N1C(=O)CCCCCCCNc1ncnc2[nH]cnc12` (stereo not drawn) [Compound 1c]: the selectivity ratio at 72 h in data set [1] was 2.6; in data set [3] (setting [6]) it was 5.9. The viability at 100 µM in data set [2] came to 2 ± 1%; in data set [4], 8 ± 2%. For the same molecule, the CC50 came out at 19 µM in data set [2] and 8.5 µM in data set [4] (n = 3 (Table 1)).
As for `CC1COc2c(ccc(F)c2F)N1C(=O)CCCCCCCCCCNc1ncnc2[nH]cnc12` (stereo not drawn) [Compound 1d], the selectivity ratio at 72 h in data set [1] stood at 1.1; in data set [3] (setting [6]) it was 2.5; in data set [3] (CC50 of WI-38 divided by CC50 of Jurkat (Table 3)), 2.1. Moreover, the results for the viability at 100 µM in data set [2] and in data set [4] were 2 ± 1% and 10 ± 4%, respectively. The CC50 in data set [2] was found to be 19 µM; in data set [4] (n = 3 (Table 1)), 8.5 µM; in data set [4] (n = 3 (Table 3)), 10 µM. Moreover, the “Cell proliferation index (%)” value in the data set with COLO201 cells (COLO201, 0.9×10–6 M) was 37.05%; with COLO201 cells (COLO201, 1×10–6 M), 36.78±0.29%; with COLO201 cells (COLO201, 2×10–6 M) it was 35.35%. In addition, the “Number of cells (%) in cell cycle phase G0/G1” value in the data set on COLO201 cells (COLO201, 0.9×10–6 M) is given as 62.95%; with COLO201 cells (COLO201, 1×10–6 M) it was 63.21%; in the data set on COLO201 cells (COLO201, 2×10–6 M) it was 64.60%. Also, the “Number of cells (%) in cell cycle phase G2M” value is reported as 15.70% with COLO201 cells (COLO201, 0.9×10–6 M); 15.41±0.74% in the data set with COLO201 cells (COLO201, 1×10–6 M); 16.84% in the data set with COLO201 cells (COLO201, 2×10–6 M). For the same molecule, the “Number of cells (%) in cell cycle phase S” value is 21.35% in the data set on COLO201 cells (COLO201, 0.9×10–6 M); 21.38% in the data set with COLO201 cells (COLO201, 1×10–6 M); 18.51% in the data set with COLO201 cells (COLO201, 2×10–6 M). Also, in the data set with COLO201 cells (COLO201, concentrations close to CC50, 24 h), the “cell cycle arrest phase” value is “cell cycle arrest occurred in the G2/M phase”. The cell proliferation index in the data set on COLO201 cells (COLO201, concentrations close to CC50, 24 h, range over the concentrations) was 35–37%. For the same molecule, in data set [5], the “solubility in aqueous media” value was “low solubility in aqueous media”. The “concentration which caused the death of 50% Vero E6 cells” value in the data set on Vero E6 cells is on record as “less than 30 µM”.

The record behind these values is PMC9962735, “Synthesis and Cytotoxic Activity of the Derivatives of N-(Purin-6-yl)aminopolymethylene Carboxylic Acids and Related Compounds” (Molecules, 2023).
